The source of these data is paper PMC6588697, “Lugdunin amplifies innate immune responses in the skin in synergy with host- and microbiota-derived factors” (Nature Communications, 2019).

Values joined by “and” are separate entries in the source; they are usually repeats but may differ in a detail not shown here. Equal entries are not always repeated.

In one assay the test system is HNEpCs. The experiment in a line: CXCL8 expression in HNEpCs (qRT-PCR). The note with it: 5 h, two technical replicates. The assay is classed as cell-based, human. The procedure:
Quantitative reverse transcription-polymerase chain reaction (qRT-PCR) was performed in 10 µL reaction volume with SYBR^TM Green PCR Master Mix (Thermo Fisher) according to the manufacturer’s instructions using a LightCycler 96 (Roche Life Science). The initial denaturation step was at 95 °C for 5 min, followed by 40 cycles with 10 s each for the denaturation step at 95 °C, the annealing at individual temperature, and the elongation at 72 °C. Primer sequences and respective annealing temperatures are listed in Supplementary Table 1. […]
31 g+h+i: HNEpCs (b), HTEpCs (c) or PBMCs (d) were treated with increasing
32 concentrations of lugdunin (grey bars) or 100 ng/mL Pam2Cys or Pam3Cys (white
33 bars) as positive controls for 5 hours and subsequently expression of CXCL8 was
34 analyzed and normalized to actin. Black bar: medium control. Shown is one
35 representative experiment of three independent experiments with two technical
36 replicates +/-s.e.m. Significant differences to control treatments were analyzed by
37 ordinary one-way ANOVA followed by Dunnett’s multiple comparisons test (*P<0.05; […]
For orientation: Quantitative PCR measures a nucleic acid by following its amplification.

In the next assay the test system is HEK293-TLR2 cells. Briefly: CXCL8 release by HEK-TLR2 cells (LEGENDplex). The assay is classed as cell-based, human. The procedure: Fig. 2 Induction of chemokine (C-X-C motif) ligand 8/macrophage inflammatory protein-2 (CXCL8/MIP-2) by lugdunin is TLR2/MyD88-dependent. a HEK-control or HEK-TLR2 cells were treated with 2 μM lugdunin for 5 h and subsequently the CXCL8 concentration in the supernatant was analyzed by LEGENDplex^TM (BioLegend). Shown is one representative experiment of three independent experiments with two technical replicates ± s.e.m. b HEK-control or HEK-TLR2 cells were treated with increasing concentrations of lugdunin for 5 h and subsequently expression of CXCL8 was analyzed and normalized to actin. Shown is one representative experiment of three independent experiments with two technical replicates ± s.e.m. c Schematic overview of the mouse experiments: 6–8-week-old female C5BL/6 WT, MyD88-knockout (ko), or 5xTLR-ko mice were epicutaneously treated with 1.5 µg lugdunin or phosphate-buffered saline (PBS) as a control. […] Significant differences to control treatments were analyzed by an unpaired two-tailed t test (*P < 0.05; **P < 0.01; ***P < 0.001). f Representative MIP-2-stained paraffin-embedded mouse skin sections. […]
Supplementary Figure 2: CXCL8 controls and other cytokines in mouse skin 46 a: HEK-control cells or HEK -TLR2 cells were treated with 100 ng/mL Pam2Cys for 5 47 hours and subsequently the CXCL8 concentration in the supernatant was analyzed. […]

As for Lugdunin, the CXCL8 fold induction in the assay on HNEpCs (lugdunin 0.5 µM, sheet Supp Fig 1f) is 2.151 and 2.454; in the assay on HNEpCs (lugdunin 1 µM), 2.621; in the assay with HNEpCs (lugdunin 2 µM), 6.148 and 8.056; in the assay on HNEpCs (lugdunin 3 µM), 5.836 and 8.253; in the assay on HNEpCs (lugdunin 5 µM) it was 4.724 and 6.453; with HNEpCs (lugdunin 10 µM), 1.659 and 2.014. Further, the “CXCL8 concentration in supernatant” value in the assay on HEK293-TLR2 cells (HEK-TLR2 cells, lugdunin 2 µM, 5 h, two technical replicates, Fig 2a) was 564.521 and 585.121. Further, the “CXCL8 induction level in HEK-TLR2 cells, times lower than Pam2Cys/Pam3Cys-mediated TLR2 activation” value in the assay with HEK293-TLR2 cells (text to Fig 2a and Supp Fig 2) is listed as 1000 fold.
